Measurements: patent US7417156B2, “Orally active, antimalarial, anticancer, artemisinin-derived trioxane dimers” (Johns Hopkins University, priority 2002, dated 2008)

Experiments:
OVCAR-8 = assay: NCI 60 cell line panel screen (SRB); format: cell-based, human
MDA-MB231/ATCC = assay: NCI 60 cell line panel screen (SRB); format: cell-based, human
HOP-62 = assay: NCI 60 cell line panel screen (SRB); format: cell-based, human
PC-3 = assay: NCI 60 cell line panel screen (SRB); format: cell-based, human
BT-549 = assay: NCI 60 cell line panel screen (SRB); format: cell-based, human
SF-539 = assay: NCI 60 cell line panel screen (SRB); format: cell-based, human
NCI-H322M = format: cell-based
60 cell line panel = format: cell-based
U251 = assay: NCI 60 cell line panel screen (SRB); format: cell-based, human
NCI/ADR-RES = assay: NCI 60 cell line panel screen (SRB); format: cell-based, human
K-562 = assay: NCI 60 cell line panel screen (SRB); format: cell-based, human
HCT-116 = assay: NCI 60 cell line panel screen (SRB); format: cell-based, human
NCI-H23 = assay: NCI 60 cell line panel screen (SRB); format: cell-based, human
IGROVI = assay: NCI 60 cell line panel screen (SRB); format: cell-based, human
TK-10 = assay: NCI 60 cell line panel screen (SRB); format: cell-based, human
OVCAR-3 = assay: NCI 60 cell line panel screen (SRB); format: cell-based, human
M14 = assay: NCI 60 cell line panel screen (SRB); format: cell-based, human
MALME-3M = assay: NCI 60 cell line panel screen (SRB); format: cell-based, human
MDA-MB-435 = assay: NCI 60 cell line panel screen (SRB); format: cell-based, human; conditions: MDA-MB-435 (Breast Cancer)
SK-MEL-28 = assay: NCI 60 cell line panel screen (SRB); format: cell-based, human
RPMI-8226 = assay: NCI 60 cell line panel screen (SRB); format: cell-based, human
A549/ATCC = assay: NCI 60 cell line panel screen (SRB); format: cell-based, human
T-47D = assay: NCI 60 cell line panel screen (SRB); format: cell-based, human
HT29 = assay: NCI 60 cell line panel screen (SRB); format: cell-based, human
SF-268 = assay: NCI 60 cell line panel screen (SRB); format: cell-based, human
SK-OV-3 = assay: NCI 60 cell line panel screen (SRB); format: cell-based, human
HOP-92 = assay: NCI 60 cell line panel screen (SRB); format: cell-based, human
SNB-75 = assay: NCI 60 cell line panel screen (SRB); format: cell-based, human
[1] = mean value over the 60 cell line panel

CC1CCC2C(C)C(CC(COC(=O)CCC(=O)O)CC3OC4OC5(C)CCC6C(C)CCC(C3C)C46OO5)OC3OC4(C)CCC1C32OO4 (centres unmarked) [Compound 8a, bis-trioxane primary succinate monoester]
Log10LC50 (OVCAR-8; OVCAR-8 (Ovarian Cancer), LC50: PG=−50): >−4.30 log10M
Log10TGI50 (OVCAR-8; OVCAR-8 (Ovarian Cancer), TGI: PG=0): >−4.30 log10M
Log10GI50 (OVCAR-8; Ovarian Cancer, OVCAR-8): >−4.30
Log10GI50 (MDA-MB231/ATCC; Breast Cancer, MDA-MB231/ATCC): −7.19
Log10LC50 (MDA-MB231/ATCC; MDA-MB231/ATCC (Breast Cancer), LC50: PG=−50): >−4.30 log10M
Log10TGI50 (MDA-MB231/ATCC; MDA-MB231/ATCC (Breast Cancer), TGI: PG=0): −6.35 log10M
Log10LC50 (HOP-62; HOP-62 (Non-Small Cell Lung Cancer), LC50: PG=−50): >−4.30 log10M
Log10TGI50 (HOP-62; HOP-62 (Non-Small Cell Lung Cancer), TGI: PG=0): >−4.30 log10M
Log10GI50 (HOP-62; Non-Small Cell Lung Cancer, HOP-62): −6.34
Log10LC50 (PC-3; PC-3 (Prostate Cancer), LC50: PG=−50): >−4.30 log10M
Log10TGI50 (PC-3; PC-3 (Prostate Cancer), TGI: PG=0): >−4.30 log10M
Log10GI50 (PC-3; Prostate Cancer, PC-3): <−8.30
Log10LC50 (BT-549; BT-549 (Breast Cancer), LC50: PG=−50): >−4.30 log10M
Log10TGI50 (BT-549; BT-549 (Breast Cancer), TGI: PG=0): −7.39 log10M
Log10GI50 (BT-549; Breast Cancer, BT-549): −7.91
Log10GI50 (SF-539; CNS Cancer, SF-539): −5.27
Log10LC50 (SF-539; SF-539 (CNS Cancer), LC50: PG=−50): >−4.30 log10M
Log10TGI50 (SF-539; SF-539 (CNS Cancer), TGI: PG=0): >−4.30 log10M
Log10TGI50 (NCI-H322M; NCI-H322M (Non-Small Cell Lung Cancer), TGI: PG=0): >−4.30 log10M
Log10GI50 (NCI-H322M; Non-Small Cell Lung Cancer, NCI-H322M): −5.11
Log10GI50 Delta (60 cell line panel): 1.29
Log10GI50 Range (60 cell line panel): 4.00
Log10LC50 Delta (60 cell line panel; 60 cell line panel): 0.46
Log10LC50 Range (60 cell line panel; 60 cell line panel): 0.48
Log10TGI50 Delta (60 cell line panel; 60 cell line panel): 3.26
Log10TGI50 Range (60 cell line panel; 60 cell line panel): 4.00
growth inhibition in words (60 cell line panel; colon cancer KM12, ovarian cancer OVCAR 3, breast cancer MDA-MB-435): selectively and strong inhibitory
Log10GI50 MG MID (60 cell line panel; mean over panel): −7.01
Log10LC50 MG MID (60 cell line panel; [1]): −4.32 log10M
Log10TGI50 MG MID (60 cell line panel; [1]): −5.04 log10M
Log10GI50 (U251; CNS Cancer, U251): −8.20
Log10LC50 (U251; U251 (CNS Cancer), LC50: PG=−50): >−4.30 log10M
Log10TGI50 (U251; U251 (CNS Cancer), TGI: PG=0): >−4.30 log10M
Log10GI50 (NCI/ADR-RES; Breast Cancer, NCI/ADR-RES): −5.64
Log10LC50 (NCI/ADR-RES; NCI/ADR-RES (Breast Cancer), LC50: PG=−50): >−4.30 log10M
Log10TGI50 (NCI/ADR-RES; NCI/ADR-RES (Breast Cancer), TGI: PG=0): >−4.30 log10M
Log10LC50 (K-562; K-562 (Leukemia), LC50: PG=−50): >−4.30 log10M
Log10TGI50 (K-562; K-562 (Leukemia), TGI: PG=0): >−4.30 log10M
Log10GI50 (K-562; Leukemia, K-562): <−8.30
Log10GI50 (HCT-116; Colon Cancer, HCT-116): <−8.30
Log10LC50 (HCT-116; HCT-116 (Colon Cancer), LC50: PG=−50): >−4.30 log10M
Log10TGI50 (HCT-116; HCT-116 (Colon Cancer), TGI: PG=0): >−4.30 log10M
Log10LC50 (NCI-H23; NCI-H23 (Non-Small Cell Lung Cancer), LC50: PG=−50): >−4.30 log10M
Log10TGI50 (NCI-H23; NCI-H23 (Non-Small Cell Lung Cancer), TGI: PG=0): >−4.30 log10M
Log10GI50 (NCI-H23; Non-Small Cell Lung Cancer, NCI-H23): <−8.30
Log10LC50 (IGROVI; IGROVI (Ovarian Cancer), LC50: PG=−50): >−4.30 log10M
Log10TGI50 (IGROVI; IGROVI (Ovarian Cancer), TGI: PG=0): >−4.30 log10M
Log10GI50 (IGROVI; Ovarian Cancer, IGROVI): −5.07
Log10GI50 (TK-10; Renal Cancer, TK-10): −6.92
Log10LC50 (TK-10; TK-10 (Renal Cancer), LC50: PG=−50): >−4.30 log10M
Log10TGI50 (TK-10; TK-10 (Renal Cancer), TGI: PG=0): −4.52 log10M
Log10LC50 (OVCAR-3; OVCAR-3 (Ovarian Cancer), LC50: PG=−50): >−4.30 log10M
Log10TGI50 (OVCAR-3; OVCAR-3 (Ovarian Cancer), TGI: PG=0): −8.21 log10M
Log10GI50 (OVCAR-3; Ovarian Cancer, OVCAR-3): <−8.30
Log10LC50 (M14; M14 (Melanoma), LC50: PG=−50): >−4.30 log10M
Log10TGI50 (M14; M-14 (Melanoma), TGI: PG=0): >−4.30 log10M
Log10GI50 (M14; Melanoma, M14): −6.94
Log10LC50 (MALME-3M; MALME-3M (Melanoma), LC50: PG=−50): >−4.30 log10M
Log10TGI50 (MALME-3M; MALME-3M (Melanoma), TGI: PG=0): −6.82 log10M
Log10GI50 (MALME-3M; Melanoma, MALME-3M): <−8.30
Log10LC50 (MDA-MB-435; LC50: PG=−50): >−4.30 log10M
Log10TGI50 (MDA-MB-435; TGI: PG=0): >−4.30 log10M
Log10GI50 (SK-MEL-28; Melanoma, SK-MEL-28): −6.09
Log10LC50 (SK-MEL-28; SK-MEL-28 (Melanoma), LC50: PG=−50): >−4.30 log10M
Log10TGI50 (SK-MEL-28; SK-MEL-28 (Melanoma), TGI: PG=0): >−4.30 log10M
Log10GI50 (RPMI-8226; Leukemia, RPMI-8226): <−8.30
Log10LC50 (RPMI-8226; RPMI-8226 (Leukemia), LC50: PG=−50): >−4.30 log10M
Log10TGI50 (RPMI-8226; RPMI-8226 (Leukemia), TGI: PG=0): −6.19 log10M
Log10LC50 (A549/ATCC; A549/ATCC (Non-Small Cell Lung Cancer), LC50: PG=−50): >−4.30 log10M
Log10TGI50 (A549/ATCC; A549/ATCC (Non-Small Cell Lung Cancer), TGI: PG=0): >−4.30 log10M
Log10GI50 (A549/ATCC; Non-Small Cell Lung Cancer, A549/ATCC): −4.42
Log10GI50 (T-47D; Breast Cancer, T-47D): <−8.30
Log10LC50 (T-47D; T-47D (Breast Cancer), LC50: PG=−50): >−4.30 log10M
Log10TGI50 (T-47D; T-47D (Breast Cancer), TGI: PG=0): −4.77 log10M
Log10GI50 (HT29; Colon Cancer, HT29): <−8.30
Log10LC50 (HT29; HT29 (Colon Cancer), LC50: PG=−50): >−4.30 log10M
Log10TGI50 (HT29; HT29 (Colon Cancer), TGI: PG=0): >−4.30 log10M
Log10GI50 (SF-268; CNS Cancer, SF-268): −7.11
Log10LC50 (SF-268; SF-268 (CNS Cancer), LC50: PG=−50): >−4.30 log10M
Log10TGI50 (SF-268; SF-268 (CNS Cancer), TGI: PG=0): >−4.30 log10M
Log10GI50 (SK-OV-3; Ovarian Cancer, SK-OV-3): −4.89
Log10LC50 (SK-OV-3; SK-OV-3 (Ovarian Cancer), LC50: PG=−50): >−4.30 log10M
Log10TGI50 (SK-OV-3; SK-OV-3 (Ovarian Cancer), TGI: PG=0): >−4.30 log10M
Log10LC50 (HOP-92; HOP-92 (Non-Small Cell Lung Cancer), LC50: PG=−50): >−4.30 log10M
Log10TGI50 (HOP-92; HOP-92 (Non-Small Cell Lung Cancer), TGI: PG=0): >−4.30 log10M
Log10GI50 (HOP-92; Non-Small Cell Lung Cancer, HOP-92): −6.56
Log10GI50 (SNB-75; CNS Cancer, SNB-75): −6.47
Log10LC50 (SNB-75; SNB-75 (CNS Cancer), LC50: PG=−50): >−4.30 log10M
Log10TGI50 (SNB-75; SNB-75 (CNS Cancer), TGI: PG=0): >−4.30 log10M
